For data set [1] the following is noted: in vivo; cited from earlier work.
For data set [2] the following is noted: in vivo; cited from earlier work. The source holds these as a separate data set.
For data set [3] the following is noted: in vivo; cited from earlier work. This is another data set of the same source.
The conditions of data set [4]: human, in vivo; cited from earlier work.
For data set [5] the following is noted: human, in vivo; cited from earlier work. The source holds these as a separate data set.
The conditions of data set [6]: continuous infusion, outpatient setting, without daily albumin; cited from earlier work.
For data set [7] the following is noted: administered acutely as a single bolus dose; cited from earlier work.
The conditions of data set [8]: bolus IV administration, cited from earlier work.
A short description of data set [9]: ongoing clinical trial of terlipressin administered as a continuous infusion in patients with cirrhosis and refractory ascites (serum sodium, hyponatremia). As to conditions: human, in vivo. The procedure:
The following clinical observations were made in an ongoing clinical trial evaluating the safety and efficacy of terlipressin, administered as a continuous infusion, in patients with cirrhosis and refractory ascites. In FIGS. 1-4, “D” stands for “Day” and the notation “Dn” where n is an integer refers to the number of days after the baseline sodium level was measured. The notation “D+N” where N is an integer refers to the number of days after administration of terlipressin was stopped.
Patient #1, a patient with cirrhosis due to NASH and recurrent ascites that was not responding to treatment with the diuretic furosemide initiated infusion with terlipressin (3 mg/day) on Day 1. Terlipressin dose (mg/day), furosemide daily dose, and serum sodium levels of the Patient #1 are recorded in FIG. 1. After 6 days of treatment with terlipressin at a dose of 3 mg/day the dose of terlipressin was escalated to 4 mg/day as per protocol. A modest reduction in serum sodium of 3 mmol/L from baseline was noted before the dose increase. After 7 days of treatment with 4 mg/day serum sodium decreased an additional 8 mmol/L so that there was a total reduction of 11 mmol/L in the 13 days of treatment versus baseline (128 vs 139 mmol/L). […] Terlipressin infusion was discontinued.
Patient #2, a person with alcoholic cirrhosis and recurrent ascites who could not be treated with diuretics began treatment with terlipressin at a dose of 3 mg/day. The daily terlipressin dose and serum sodium levels of the Patient #2 are recorded in FIG. 2.
Patient #3, a person with cirrhosis due to NASH, with uncontrolled ascites despite ongoing treatment with the diuretics furosemide and spironolactone, initiated treatment with terlipressin administered as a continuous intravenous infusion at a dose of 3 mg/day. Terlipressin dose (mg/day), furosemide daily dose, and serum sodium levels of the Patient #3 are recorded in FIG. 3. […] Though the patient was asymptomatic the patient was directed to go to the Emergency room. […]

Details of data set [10]: species or system human. The settings on record: in vivo. As for the experimental part: Patient #4, who was one of 6 patients treated with terlipressin administered as a continuous infusion in our previous Phase 2a trial, was a person with recurrent ascites due to cirrhosis despite taking the […] spironolactone and furosemide. Terlipressin, furosemide, and serum sodium levels of […] are recorded in FIG. 4. According to protocol this patient began treatment with terlipressin at an initial dose of 2 mg/day who was escalated to a dose of 3 mg/day on Day 5. Serum sodium gradually declined over time reaching a reduction of 10 mmol/L on Day 5 at which point the patient stopped taking furosemide. Serum sodium continued to decline and spironolactone was stopped for two days which had no impact on declining serum sodium. Terlipressin infusion was stopped after 9 days of treatment and serum sodium rebounded after 2 days of drug cessation.
Additionally, one patient in our previously conducted Phase 2a trial (n=6) similarly developed asymptomatic hyponatremia in response to terlipressin administration.
In searching for a commonality between the three patients that experienced hyponatremia in response to terlipressin treatment in the current trial it was noted that the three patients were taking daily gabapentin (Patient #1 and 2) or pregabalin (Patient #3) though none of the other 7 patients randomized to treatment with terlipressin were taking either of these medications. Moreover, the one patient out of six who developed hyponatremia in response to terlipressin in the previous Phase 2a trial was also taking gabapentin.

The conditions of data set [11]: administered over 14 days with daily albumin to HRS patients; cited from earlier work.

Molecules are shown by their SMILES. Positions of bridges follow the written chain, without caps; N, C: chain ends. Residues, ends and D or L forms follow the SMILES beside them.

The values that follow come from patent publication US12685756B2, “Methods of treating disease with Terlipressin” (BIOVIE INC., priority 2022, dated 2026).

As for `NC(=O)CC[C@@H]1NC(=O)[C@H](Cc2ccccc2)NC(=O)[C@H](Cc2ccc(O)cc2)NC(=O)CCSSC[C@@H](C(=O)N2CCC[C@H]2C(=O)N[C@H](CCCN=C(N)N)C(=O)NCC(N)=O)NC(=O)[C@H](CC(N)=O)NC1=O` [desmopressin], in data set [1], the “incidence of desmopressin-induced hyponatremia” value is reported as 7.6%.
As for `NCC1(CC(=O)O)CCCCC1` [gabapentin], the “risk of hyponatremia compared with other anti-epilepsy drugs” value in data set [2] is “lowest risk of hyponatremia among anti-epilepsy drugs”.
In the case of `NCCCC[C@H](NC(=O)[C@@H]1CCCN1C(=O)[C@@H]1CSSC[C@H](NC(=O)CNC(=O)CNC(=O)CN)C(=O)N[C@@H](Cc2ccc(O)cc2)C(=O)N[C@@H](Cc2ccccc2)C(=O)N[C@@H](CCC(N)=O)C(=O)N[C@@H](CC(N)=O)C(=O)N1)C(=O)NCC(N)=O` [terlipressin] (H-GGGCYFQNCPKG-NH2; disulfide 4-9), in [3], the incidence of hyponatremia is reported as less than 5%. Also, the “patients who experienced hyponatremia defined as ≥5 mmol decrease in serum sodium” value in data set [4] is listed as 67%. In data set [5], the “patients with severe hyponatremia (reduction in serum sodium of >10 mmol/L)” value is reported as “more than 12%” and the “patients with severe hyponatremia who experience neurological manifestations” value is listed as “at least 30%”. In addition, in [6], the “effect on renal function and ascites” value was “improve renal function and reduce ascites”; the “effect on serum sodium concentrations” value was “improve serum sodium concentrations”. For the same compound, the antidiuretic effect result in data set [7] is given as “mediates antidiuretic effects”. Also, in data set [8] (between bolus doses), the “hours in which V2 mediated antidiuretic effects can predominate” value is 4 to 6 h. The “duration of V1-mediated pharmacodynamic effects” value in [8] is 3 to 4 h. In data set [9], the “additional decrease in serum sodium” value is given as 4 mmol/L, the “relatedness of hyponatremia to treatment” value is “considered related to terlipressin” and the “total reduction in serum sodium versus baseline” value came out at 11 mmol/L. In [10], the “patients who developed asymptomatic hyponatremia in response to terlipressin” value is “one patient”, the “relatedness of severe hyponatremia to treatment” value is on record as “considered related to terlipressin treatment”, the “serum sodium after drug cessation” value is listed as “rebounded” and the “symptoms of severe hyponatremia” value is “asymptomatic”. For the same compound, in [11], the “effect on low serum sodium” value was “can even correct low serum sodium”.
